Measurements reported in patent publication US9581577B2, “Miniaturized flow-through cell” (NATIONAL UNIVERSITY OF SINGAPORE, priority 2012, dated 2017).

Key:
[1] = Endoxifen permeation studies with MFtC, with or without permeation enhancers; assay type: in vitro ADME, rat; conditions: for Flux / Lag time: MFtC, rat abdominal skin, mean ± SD, N = 3
Method: A fluorescence assay for endoxifen was established whereby endoxifen was converted to highly fluorescent phenanthrene derivatives following exposure to ultraviolet (UV) irradiation. A UV transilluminator (Bio Rad, USA) at λ=302 nm and an intensity of 866 μW/cm^2 was used for the conversion of endoxifen to its phenanthrene derivatives. The fluorescence emitted from the phenanthrene derivatives of endoxifen after various durations of UV exposure was determined with a microplate reader at a λex=260 nm and a λem=380 nm. Fluorescence measurements from non-UV exposed samples served as a control. The optimum duration of UV irradiation was determined with a 10 μg/ml solution of endoxifen. For all subsequent experiments, this duration of UV irradiation was fixed at the optimal time. The validated MFtC 5 mounted with rat abdominal skin was employed to determine the permeation profile of endoxifen. Donor solutions comprised of endoxifen (2 mg/ml) in PG with and without permeation enhancers (PEs) namely limonene, myristyl lactate and oleic acid at 0.5% (w/v) were prepared. All solutions were sonicated for 3 min to ensure dissolution of endoxifen and PEs. Each donor compartment 220 was filled with 200 μl of donor solution. Endoxifen was allowed to permeate through the rat abdominal skin over 48 hr. The experiments were performed in triplicates. Samples of permeated solutions were collected at specific time intervals and stored at −20° C. until analysis. The flux at steady state (Jss) and lag time were obtained from the cumulative plots. The effect of the PEs on the flux was evaluated by calculating the enhancement index (EI). Independent sample t-test (IBM SPSS PASW Statistics 18) was used to compare the permeation parameters obtained from experiments involving horizontal diffusion cell and MFtC 5. For endoxifen permeation experiments, one-way analysis of variance (ANOVA) with Scheffe post hoc test was used for the comparison of the permeation parameters of endoxifen with or without the different PEs. For all tests, p<0.05 was considered significant.

[2] = Flux through rat skin translated to human skin; assay type: in vitro ADME; conditions: translated from the rat skin flux of 6.52 μg/cm^2/hr; limonene as PE in PG
[3] = cited from earlier work
[4] = endoxifen in 60% (v/v) ethanol-phosphate buffer with 0.5% (w/v) oleic acid; cited from earlier work
[5] = Permeation across rat abdominal skin in horizontal diffusion cell (HDC); assay type: in vitro ADME
Method: To evaluate the performance characteristics of the MFtC 5, permeation of model compounds (rhodamine B and mangostin) using a horizontal diffusion cell (TK-6H1, Shanghai Kai Kai Technology, China) and a MFtC 5 was compared. Rat abdominal skins were obtained from the National University of Singapore Animal Centre and kept at −80° C. until use. Prior to the permeation studies, the skins were thawed and hair was completely removed with an electrical shaver and hair remover cream (Veet). Subcutaneous fat and connective tissues were also lightly trimmed off. All animal experiments were approved by Institutional Animal Care and Use Committee, National University of Singapore. A 2.0 cm×2.0 cm piece of rat abdominal skin was mounted between the donor and receptor compartments of the horizontal diffusion cell, with the stratum corneum side facing the donor compartment. The effective diffusion area was 1.13 cm^2. Each donor cell contained 4.5 ml of each model compound in propylene glycol (PG) and the receptor cell contained the same volume of PBS. Mangostin was used at a concentration of 2.3 mg/ml and rhodamine B at concentrations of 1 mg/ml and 5 mg/ml. Both compartments were thermostated at 37° C. by means of a surrounding temperature controlled water jacket. In order to minimize evaporation, all cell openings were occluded with parafilm. The fluids in both compartments were maintained in a stirred state by a Teflon coated magnetic stirrer at a speed of 250±1.25 rpm. Samples (1 ml) were withdrawn from the receptor compartment for analysis at specific time intervals. Upon each sample withdrawal, the receptor compartment was immediately replaced by an equal volume of fresh solution. The experiments were performed in triplicates or more. Skin samples from the same rat were used for comparisons between the horizontal diffusion cell and a MFtC 5 to minimise inter-animal variability. All experiments were performed at least three times. The samples were collected at the same time intervals and stored at 4° C. until analysis. During analysis, samples were first centrifuged at 13,000 rpm (Sorvall Biofuge Pico, UK) for 5 min. The supernatant was obtained and analyzed according to their respective assay methods as reported below. Concentration of rhodamine B was determined by fluorescence spectroscopy with a microplate reader (Tecan, Switzerland) at an excitation wavelength (λex)=554 nm and an emission wavelength (λem)=586 nm at ambient temperature. All samples were protected from light to prevent possible light quenching of fluorescence during the assay. Mangostin concentration was determined with a reversed phase HPLC (Hitachi, Japan) using a C18 column (5 μm, 4.6 mm×250 mm; ODS Hypersil, Thermo Scientific) maintained at ambient temperature. The mobile phase comprised of methanol and ultrapure water (90:10, v/v) delivered at a flow rate of 1 ml/min. The UV detector (L-2400, Hitachi, Japan) was operated at a λ=320 nm. Under these conditions, the mangostin peak appeared at a retention time of 6.8 min.

[6] = Permeation across rat abdominal skin in miniaturized flow-through cell (MFtC), validation; assay type: in vitro ADME
Method: To evaluate the performance characteristics of the MFtC 5, permeation of model compounds (rhodamine B and mangostin) using a horizontal diffusion cell (TK-6H1, Shanghai Kai Kai Technology, China) and a MFtC 5 was compared. Rat abdominal skins were obtained from the National University of Singapore Animal Centre and kept at −80° C. until use. Prior to the permeation studies, the skins were thawed and hair was completely removed with an electrical shaver and hair remover cream (Veet). Subcutaneous fat and connective tissues were also lightly trimmed off. All animal experiments were approved by Institutional Animal Care and Use Committee, National University of Singapore. Similar conditions were used in the MFtC 5 or MFtC 5 setup. A 1.0 cm×1.0 cm piece of rat abdominal skin was mounted between the donor compartment 220 and the receptor compartment 120 with the stratum corneum side facing the donor compartment 220 of the MFtC 5. In some embodiments, the area and shape of the skin/membrane of the present disclosure can be modified as needed or per application requirements. A sealant or sealing substance or material such as high vacuum grease (Dow Corning, USA) was applied to the donor compartment 220 on the unexposed stratum corneum side, in contact with the receptor compartment 120, to minimize leakage from the donor compartment 220. Other sealants, sealing substances, or high vacuum grease for minimizing leakage from the donor compartment 220 can be selected as needed or per application requirements. […] On the other hand, leakage of the donor solution could be observed when no grease was applied. In an embodiment of the present disclosure, the effective diffusion area was 0.283 cm^2. In some embodiments, the effective diffusion area can be about 0.283 cm^2 to about 0.5 cm^2. In an embodiment of the present disclosure, 70 μl of the donor solution was added into the donor compartment 220. In some embodiments, the volume of the donor solution added to the donor compartment 220 can be about 70 μl to about 300 μl. In an embodiment of the present disclosure, the receptor fluid or receptor solution comprised degassed PBS solution. In some embodiments, the receptor solution of the present disclosure can comprise other solutions such as water, buffers, extracellular fluid, lung lining fluid, gastric fluid, and/or cerebrospinal fluid. In an embodiment of the present disclosure, the flow rate of receptor solution through each diffusion cell 50 can be controlled by an infusion pump system 60, wherein the flow rate can be about 0.20 ml/hr. In some embodiments, the flow rate of receptor solution through each diffusion cell 50 can be reduced or increased to a flow rate of about 0.828 μl/hr to about 1270 ml/hr as needed or per application requirements. An embodiment of a MFtC 5 of the present disclosure was placed in a temperature controlling system such as a water bath 80 maintained at 37° C. using a hot plate to control the temperature. In some embodiments, the temperature can be adjusted as needed or per application requirements. In order to minimize evaporation, the donor compartment 220 and sampling container(s) 70 such as a sampling microfuge tube(s) 70 were occluded with parafilm. The sampling container(s) 70 such as a sampling tube(s) 70 was collected at specific time intervals and replaced by a sampling container(s) 70 such as an empty sampling tube(s) 70 for subsequent collections. The experiments were performed in triplicates or more. In some embodiments, the method of collecting the sample can be modified as needed or per application requirements. Skin samples from the same rat were used for comparisons between the horizontal diffusion cell and a MFtC 5 to minimise inter-animal variability. All experiments were performed at least three times. The samples were collected at the same time intervals and stored at 4° C. until analysis. During analysis, samples were first centrifuged at 13,000 rpm (Sorvall Biofuge Pico, UK) for 5 min. […]

[7] = ENX 2 mg/ml in PG alone (control)
[8] = ENX 2 mg/ml in PG with limonene 0.5% (w/v)
[9] = ENX 2 mg/ml in PG with myristyl lactate 0.5% (w/v)
[10] = ENX 2 mg/ml in PG with oleic acid 0.5% (w/v)
[11] = HDC, donor 1 mg/ml in propylene glycol, rat abdominal skin, mean ± SD
[12] = HDC, donor 5 mg/ml in propylene glycol, rat abdominal skin, mean ± SD
[13] = MFtC, donor 1 mg/ml in propylene glycol, rat abdominal skin, mean ± SD
[14] = MFtC, donor 5 mg/ml in propylene glycol, rat abdominal skin, mean ± SD

In the case of `CC/C(=C(\c1ccc(O)cc1)c1ccc(OCCNC)cc1)c1ccccc1` [endoxifen], the Flux [1, 7] is reported as 0.65 ± 0.01 μg/cm^2/hr, the Lag time [1, 7] is reported as 1.03 ± 1.40 h and the Flux [1, 8] is reported as 6.52 μg/cm^2/hr. It also gave a Lag time [1, 8] of 3.75 ± 2.37 h, a Flux ([1]; ENX 2 mg/ml in PG with limonene 0.5% (w/v), listed as ENX) of 6.52 ± 1.41 μg/cm^2/hr and a Flux [1, 9] of 5.33 ± 0.13 μg/cm^2/hr. It also gave a Lag time [1, 9] of 7.62 ± 2.18 h, a Flux [1, 10] of 4.09±1.07 μg/cm^2/hr and a Lag time [1, 10] of 7.58 ± 4.04 h. For the same molecule, the Flux ([1]; ENX 2 mg/ml in PG with oleic acid 0.5% (w/v), listed as ENX) was 4.09 ± 1.07 μg/cm^2/hr, the “Enhancement index (EI) = Jss (with enhancer)/Jss (without enhancer)” value (from here on “Enhancement index … (without enhancer)”) ([1]; ENX in PG with limonene 0.5% (w/v) versus PG alone) was 9.99 and the “Enhancement index … (without enhancer)” value ([1]; ENX in PG with myristyl lactate 0.5% (w/v) versus PG alone) was 8.17. For the same molecule, the “Enhancement index … (without enhancer)” value ([1]; ENX in PG with oleic acid 0.5% (w/v) versus PG alone) was 6.26, the “Flux through human skin” value [2] was 2.17 μg/cm^2/hr and the “log P” value [3] was 4.94. The “Highest flux reported (Jss)” value [4] was 0.22 μg/cm^2/hr.
For `CCCCCCCC/C=C\CCCCCCCC(=O)O` [oleic acid], the “log P” value [3] is listed as 7.42.
For `C=C(C)[C@H]1CC=C(C)CC1` [limonene, (R)-(+)-limonene], the “log P” value [3] is listed as 4.83.
For `CCCCCCCCCCCCCCOC(=O)C(C)O` (stereo not shown) [myristyl lactate], the “log P” value [3] is listed as 6.08.
For `CC(O)CO` (stereo not shown) [propylene glycol], the “log P” value [3] is listed as −1.00.
In the case of `COc1c(O)cc2oc3cc(O)c(CC=C(C)C)c(O)c3c(=O)c2c1CC=C(C)C` [mangostin, α-mangostin], the Flux ([5]; rat, 48 h, 2.3 mg/ml) is reported as 7.06 ± 1.06 μg/cm^2/hr, the Lag time ([5]; rat, 48 h, 2.3 mg/ml) is reported as 7.19 ± 0.47 h and the Flux ([6]; rat, 48 h, 2.3 mg/ml) is reported as 8.34 ± 3.40 μg/cm^2/hr. For the same molecule, the Lag time ([6]; rat, 48 h, 2.3 mg/ml) was 14.5 ± 2.71 h and the “log P” value [3] was 6.64.
Work on `CCN(CC)c1ccc2c(-c3ccccc3C(=O)O)c3ccc(=[N+](CC)CC)cc-3oc2c1.[Cl-]` [rhodamine B] yielded a Flux [5, 11] of 0.04 ± 0.03 μg/cm^2/hr, a Lag time [5, 11] of 17.7 ± 3.47 h and a Flux [5, 12] of 0.07 ± 0.01 μg/cm^2/hr. It also gave a Lag time [5, 12] of 11.4 ± 3.31 h, a Flux [6, 13] of 0.05 ± 0.02 μg/cm^2/hr and a Lag time [6, 13] of 22.1 ± 4.07 h. For the same molecule, the Flux [6, 14] was 0.05 ± 0.02 μg/cm^2/hr, the Lag time [6, 14] was 8.35 ± 4.75 h and the “log P” value [3] was 2.43.
